# “Also recorded” adds a separate entry of the source.
# Assays:
# ATX = ATX (UniProt Q9R1E6); assay: ATX inhibitory activity, Amplex Red method; type: biochemical; conditions: LPC 16:0 50 μM, two independent experiments, read-out: IC50 against ATX
# Method: The inhibition of ATX enzyme activity of the pharmaceutical compound A-1 was measured in vitro by applying the Amplex Red method. Briefly, 2 μL of concentration from 0.001 to 5 μmol/L of derivative […] in DMSO was incubated with 50 μL ATX 8 nM (up to a final concentration of 2 nM and 1 nM for human ATX) and 48 μL of a buffer solution (50 mM Tris-Cl of pH 8.0 and 5 mM CaCl2) for 15 minutes at 37° C. Subsequently, 50 μL of a buffer solution containing 200 μM LPC 16:0 (final concentration 50 μM) was added to the reaction mixture followed by incubation for another 30 minutes at 37° C. Finally, 50 μL of working solution containing 200 μM Amplex Red reagent and choline oxidase (0.2 U/mL) […] HRP (2 U/mL), in 50 mM Tris-HCl at pH 8.0 and 5 mM CaCl2, was added to begin the reaction. The reaction was monitored at 37° C., in a fluorescence plate reader (Tecan Infinite 200) using excitation at 530 nm and reading at 590 nm, every five minutes for 30 minutes at 37° C. The IC50 value was calculated from two independent experiments, using the sigmoid dose-response curve (PrismH software) from the equation f=y0+a/(1+exp(−(x−x0)/b) given from SigmaPlot 11.0.
# Mouse ATX = biological target: T1, Mouse ATX (Mus musculus, UniProt Q9R1E6); assay: Mode of inhibition of ATX, modified Amplex assay (Lineweaver-Burk); type: biochemical; conditions: inhibitor 1-7.5 μM, LPC 25, 50, 100 μM
# T1 construct: purchased Sino Biological
# Method: To determine the mode of inhibition of ATX by each inhibitor, a modified Amplex assay was employed. In brief, various concentrations of inhibitors (1, 2.5, 5 and 7.5 μM) were tested against various substrate concentrations (LPC 25, 50, 100 μM). Mouse ATX from Sino Biological was used in all mode of inhibition assays. Thereafter, the velocity (V) of the reaction was calculated and the reciprocal of velocity (1/V) was plotted against the reciprocal of substrate concentration (1/S) in Lineweaver-Burk graphs using GraphPad Software (GraphPad Software, San Diego, CA, USA).
# choline oxidase = assay: 2nd reaction of the Amplex Red assay (counter-test); type: biochemical; conditions: 2nd reaction of Amplex Red assay
# HRP peroxidase = biological target: T2, HRP peroxidase (Armoracia rusticana, UniProt P00433); assay: 3rd reaction of the Amplex Red assay (counter-test); type: biochemical; conditions: 3rd reaction of Amplex Red assay
# T2 sequence (P00433 31-338 limits assumed): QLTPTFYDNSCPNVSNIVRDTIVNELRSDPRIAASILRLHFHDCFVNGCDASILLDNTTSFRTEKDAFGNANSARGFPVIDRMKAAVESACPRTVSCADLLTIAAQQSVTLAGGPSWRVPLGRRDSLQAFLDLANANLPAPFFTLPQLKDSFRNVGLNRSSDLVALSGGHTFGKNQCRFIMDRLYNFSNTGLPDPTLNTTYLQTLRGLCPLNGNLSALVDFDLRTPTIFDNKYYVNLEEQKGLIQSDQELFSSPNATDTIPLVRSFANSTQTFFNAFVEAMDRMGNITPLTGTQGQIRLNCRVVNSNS
# [1] = In vitro absorption assay, membrane permeability; type: in vitro ADME; conditions: dog, MDCK, MDCKII
# Method: The in vitro absorption assay was performed in the kidney MDCKII cell line and involves the permeability from A to B, when A and B are separated by an MDCKII cell membrane. Ideally, a compound should have a high A to B permeability, but a lower B to A permeability in order to be well-absorbed. […] The A-B permeability is much higher than the B-A permeability, thus both compounds are absorbed well in vitro.
# [2] = In vitro metabolism assay in liver microsomes; type: in vitro ADME
# Method: The in vitro metabolism assay was performed in liver microsomes. […] This half-live is higher than the ones of known drugs such as imipramine and others, therefore, it seems that A-1 is not quickly cleared from the circulation and, thus, remain available in the circulation for a sufficient period of time.
# hERG = biological target: T3, hERG (Homo sapiens, UniProt Q12809); assay: Cardiac toxicity assay, hERG inhibition in CHO cells; type: cell-based; conditions: for cardiotoxicity (conclusion): from hERG assay
# T3 construct: expressed in transfected cells; host or cells: CHO cells
# T3 sequence (Q12809 whole entry): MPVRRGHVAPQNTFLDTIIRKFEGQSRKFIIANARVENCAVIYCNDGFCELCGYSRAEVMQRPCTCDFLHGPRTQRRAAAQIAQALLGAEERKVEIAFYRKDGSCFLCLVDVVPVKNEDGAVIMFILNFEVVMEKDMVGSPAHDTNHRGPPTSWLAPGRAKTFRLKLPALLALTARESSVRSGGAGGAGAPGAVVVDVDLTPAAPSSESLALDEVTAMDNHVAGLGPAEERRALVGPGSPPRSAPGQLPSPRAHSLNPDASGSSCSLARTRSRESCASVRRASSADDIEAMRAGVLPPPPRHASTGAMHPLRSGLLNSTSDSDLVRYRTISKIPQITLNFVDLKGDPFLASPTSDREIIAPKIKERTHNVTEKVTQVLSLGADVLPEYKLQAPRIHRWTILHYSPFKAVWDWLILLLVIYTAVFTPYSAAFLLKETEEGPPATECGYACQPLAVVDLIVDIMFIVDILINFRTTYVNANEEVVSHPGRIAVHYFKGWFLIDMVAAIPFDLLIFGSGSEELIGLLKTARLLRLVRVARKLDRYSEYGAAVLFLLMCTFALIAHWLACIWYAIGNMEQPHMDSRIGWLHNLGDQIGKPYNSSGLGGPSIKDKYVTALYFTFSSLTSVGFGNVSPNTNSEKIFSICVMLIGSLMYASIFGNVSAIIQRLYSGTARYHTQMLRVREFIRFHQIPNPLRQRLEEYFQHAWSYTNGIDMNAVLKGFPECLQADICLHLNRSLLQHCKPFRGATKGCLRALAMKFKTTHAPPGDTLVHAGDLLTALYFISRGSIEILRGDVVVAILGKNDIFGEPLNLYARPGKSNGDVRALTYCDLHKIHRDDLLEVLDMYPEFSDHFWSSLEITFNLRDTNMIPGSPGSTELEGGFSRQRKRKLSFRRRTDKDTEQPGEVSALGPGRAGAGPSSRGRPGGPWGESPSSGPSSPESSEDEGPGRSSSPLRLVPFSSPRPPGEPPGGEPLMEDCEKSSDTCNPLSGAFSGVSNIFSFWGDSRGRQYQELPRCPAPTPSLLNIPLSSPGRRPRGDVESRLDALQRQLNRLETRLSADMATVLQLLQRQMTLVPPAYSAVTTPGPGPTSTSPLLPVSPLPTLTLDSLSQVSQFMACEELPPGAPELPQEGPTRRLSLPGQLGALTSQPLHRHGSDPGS
# Method: The assay of cardiac toxicity is performed on CHO cells that express the human ether-a-go-go related gene (hERG) that encodes the inward rectifying voltage gated potassium channel in the heart, which is involved in cardiac repolarisation. Inhibition of the hERG may cause potentially fatal ventricular tachyarrhythmia.
# [3] = system: BLM-induced pulmonary fibrosis; assay: Bleomycin (BLM)-induced pulmonary fibrosis in mice, dosing from one day before BLM; type: in vivo, C57Bl6/J mice
# Method: 10-week-old male wild-type C57Bl6/J animals were administered a saline solution of bleomycin (BLM) directly to the lungs via the orotracheal route. The dose of bleomycin was 0.8 U/kg. […] All animals were monitored daily until the 14th day after the BLM injection when they were killed. […] Serum, broncheoalveolar fluid and lung tissue samples were taken at the end point of the experiment and were used to assess the severity of fibrosis for each animal.
# Blood serum was collected for each animal and levels of ALT and AST transaminases, which are markers of liver damage, were assessed by using an automated biochemical analyzer.
# Next, in the collected broncheoalveolar fluid, the number of cells as well as the total protein concentration were assessed as indicators of inflammation and endothelial penetration, respectively.
# Additionally, in sections of lung tissue isolated from the animals, fibrosis was assessed after staining with hematoxylin and eosin.
# The mRNA levels of fibrosis-related genes col1α1 (collagen 1α1) in whole lung RNA samples were also estimated.
# [4] = system: BLM-induced pulmonary fibrosis; assay: BLM-induced pulmonary fibrosis in mice, inhalation in therapeutic mode; type: in vivo, C57B16/J mice; conditions: inhalation 15 mg/Kg twice daily for 7 days, from 7d post BLM
# Method: To explore the therapeutic potential of ATX inhibition in pulmonary fibrosis, BLM was administered to 8-10-week-old C57B16/J mice. Subsequently, the pharmaceutical compound A-1 was delivered for 7 days twice daily via inhalation (1 ml of 6.5 mg/ml for 10 mins/6 mice, corresponding to 15 mg/Kg per mouse) to conscious, gently re-strained mice, in a therapeutic mode (7d post BLM).
# [5] = 30 mg/kg, 2 doses daily, vs B+V group
structure (smiles),measurement,setting,value
"O=C1NC(=O)C(Cc2ccc(OCCN3CCN(C(=O)OCc4cc(Cl)cc(Cl)c4)CC3)cc2)S1 (centres unmarked) [A-1, 3,5-dichlorobenzyl4-(2-(4-((2,4-dioxothiazolidin-5-yl)methyl)phenoxy)ethyl)piperazine-1-carboxylate]",IC50,ATX,190 nM
same,mode of inhibition against ATX,Mouse ATX,non-competitive inhibition
same,inhibition of choline oxidase,choline oxidase,no inhibition; also recorded: Neither compound showed any detectable inhibition
same,inhibition of HRP peroxidase,HRP peroxidase,no inhibition; also recorded: Neither compound showed any detectable inhibition
same,Papp A→B,[1]; A to B,3.7 ×10⁻⁶ cm/s
same,Papp B→A,[1]; B to A,0.8 ×10⁻⁶ cm/s
same,microsomal CLint,"[2]; liver microsomes, read-out: Clint (intrinsic clearance)",329 µL/min/mg
same,half-life,[2]; microsomes,21 min
same,IC50,hERG,12000 nM
same,cardiotoxicity (conclusion),hERG,not cardiotoxic; also recorded: does not exhibit cardiotoxicity
same,side effects during the model,"[3]; 30 mg/kg, 2 doses daily, 14 days post BLM, vs untreated group",did not suffer any unwanted side effects
same,"fibrotic areas in lung sections, hematoxylin and eosin",[3]; [5],less fibrotic areas
same,number of cells in bronchoalveolar fluid,[3]; [5],reduced number of cells
same,total protein concentration in bronchoalveolar fluid,[3]; [5],lower levels
same,col1α1 mRNA levels in whole lung,"[3]; 30 mg/kg, 2 doses daily, vs B+V, restored to S+V level",reduces the mRNA levels (expression) of col1α1 statistically significantly
same,serum ALT level,"[3]; 30 mg/kg, 2 doses daily, normal range 28-132 U/L",normal
same,serum AST level,"[3]; 30 mg/kg, 2 doses daily, normal range 59-247 U/L",normal
same,liver toxicity / hepatotoxicity (conclusion),[3]; from ALT and AST levels,does not cause any adverse toxicity to the liver; also recorded: does not exhibit hepatotoxicity
same,inflammatory cells in BALF,[4],significantly reduced
same,"lung architecture, H&E staining",[4],prevented BLM-induced architectural distortion
same,lung respiratory functions (FlexiVent),[4],relative protection
same,vascular leak and pulmonary edema (total protein concentration in BALF),[4],noteworthy decrease
"Cc1c(C)c2c(c(C)c1O)CCC(C)(COc1ccc(CC3SC(=O)NC3=O)cc1)O2 (centres unmarked) [TGL, troglitazone, reference compound]",IC50,ATX,610 nM
"O=C1NC(=O)C(Cc2ccc(OCCC3CCN(C(=O)OCc4cc(Cl)cc(Cl)c4)CC3)cc2)S1 (centres unmarked) [A-3, 3,5-dichlorobenzyl 4-(2-(4-((2,4-dioxothiazolidin-5-yl)methyl)phenoxy)ethyl)piperidine-1-carboxylate]",IC50,ATX,30 nM
same,mode of inhibition against ATX,Mouse ATX,non-competitive inhibition
same,inhibition of choline oxidase,choline oxidase,no inhibition; also recorded: Neither compound showed any detectable inhibition
same,inhibition of HRP peroxidase,HRP peroxidase,no inhibition; also recorded: Neither compound showed any detectable inhibition
same,cardiotoxicity (conclusion),hERG,not cardiotoxic; also recorded: does not exhibit cardiotoxicity
same,inhibition at 25 µM,"hERG; human, at 25 μM",11%

# Reference: US20260102390A1, “4-(2-(4-((2,4-DIOXOTHIAZOLIDIN-5-YL)METHYL)PHENOXY) DERIVATIVES AS PPARgamma AGONISTS AND AUTOTAXIN INHIBITORS FOR USE IN THE TREATMENT OF FIBROSIS” (Uni-Pharma Kleon Tsetis Pharmaceutical Laboratories S.A., priority 2022, published 2026)
